The values that follow come from patent US20140357487A1, “PLANTS HAVING INCREASED TOLERANCE TO HERBICIDES” (BASF SE, priority 2011, published 2014).

The subject of test [1] is Poa HPPD. In words: HPPD activity assay, Poa HPPD. Type of test: biochemical. The note with it: normalized on Arabidopsis wild-type HPPD. Here is the method: HPPD produces homogentisic acid and CO2 from 4-hydroxyphenylpyruvate (4-HPP) and O2. The activity assay for HPPD is based on the analysis of homogentisic acid by reversed phase HPLC.
The assay mixture can contain 150 mM potassium phosphate buffer pH 7.0, 50 mM L-ascorbic acid, 1 μM FeSO4 and 7 μg of purified enzyme in a total volume of 1 ml.
Inhibitors are dissolved in DMSO (dimethylsulfoxide) to a concentration of 20 mM or 0.5 mM, respectively. From this stock solution serial five-fold dilutions are prepared in DMSO, which are used in the assay. The respective inhibitor solution accounts for 1% of the assay volume. Thus, final inhibitor concentrations range from 200 μM to 2.5 nM or from 5 μM to 63 pM, respectively. After a preincubation of 30 min the reaction is started by adding 4-HPP to a final concentration of 0.1 mM. The reaction is allowed to proceed for 120 min at room temperature. The reaction is stopped by addition of 100 μl of 4.5 M phosphoric acid.
Activities are normalized by setting the uninhibited enzyme activity to 100%. IC50 values are calculated using non-linear regression.
The assay mixture can contain 150 mM potassium phosphate buffer pH 7.0, 50 mM L-ascorbic acid, 100 μM Catalase (Sigma-Aldrich), 1 μM FeSO4 and 0.2 units of purified HPPD enzyme in a total volume of 505 μl. […]
Inhibitors are dissolved in DMSO (dimethylsulfoxide) to a concentration of 0.5 mM. […] IC50 values are calculated using non-linear regression.
Using methods which are described in the above examples or well known in the art, purified, recombinant wildtype HPPD enzymes are characterized with respect to their kinetic properties and sensitivity towards HPPD inhibiting herbicides. Apparent michaelis constants (Km) and maximal reaction velocities (Vmax) are calculated by non-linear regression with the software GraphPad Prism 5 (GraphPad Software, La Jolla, USA) using a substrate inhibition model. […] Weighted means (by standard error) of Km and […] values are calculated from at least three independent experiments. […]

Test [2] concerns transgenic corn plants, Arabidopsis HPPD, event SDM-71884. In words: Greenhouse testing of transgenic corn plants, Arabidopsis HPPD. Type of test: in vivo, Zea mays. The note with it: corn SDM-71884, 5 days after herbicide treatment, average of 8 T1. An excerpt: (§1) Various methods for the production of stably transformed plants are well known in the art. Coumarone-derivative herbicide tolerant soybean (Glycine max) or corn (Zea mays) plants can be produced by a method described by Olhoft et al. (US patent 2009/0049567). Briefly, HPPD or HST encoding polynucleotides are cloned into a binary vector using standard cloning techniques as described by Sambrook et al. (Molecular cloning (2001) Cold Spring Harbor Laboratory Press). The final vector construct contains an HPPD or HST encoding sequence flanked by a promoter sequence (e.g. the ubiquitin promoter (PcUbi) sequence) and a terminator sequence (e.g. the nopaline synthase terminator (NOS) sequence) and a resistance marker gene cassette (e.g. AHAS) (FIG. 2). Optionally, the HPPD or HST gene can provide the means of selection. Agrobacterium-mediated transformation is used to introduce the DNA into soybean's axillary meristem cells at the primary node of seedling explants. After inoculation and co-cultivation with Agrobacteria, the explants are transferred to shoot induction medium without selection for one week. The explants are subsequently transferred to shoot induction medium with 1-3 μM imazapyr (Arsenal) for 3 weeks to select for transformed cells. Explants with healthy callus/shoot pads at the primary node are then transferred to shoot elongation medium containing 1-3 μM imazapyr until a shoot elongates or the explant dies. After regeneration, transformants are transplanted to soil in small pots, placed in growth chambers (16 hr day/8 hr night; 25° C. day/23° C. night; 65% relative humidity; 130-150 mE m−2 s−1) and subsequently tested for the presence of the T-DNA via Taqman analysis. After a few weeks, healthy, transgenic positive, single copy events are transplanted to larger pots and allowed to grow in the growth chamber. Transformation of corn plants is done by a method described by McElver and Singh (WO 2008/124495). Plant transformation vector constructs containing HPPD or HST sequences are introduced into maize immature embryos via Agrobacterium-mediated transformation. Transformed cells are selected in selection media supplemented with 0.5-1.5 μM imazethapyr for 3-4 weeks. Transgenic plantlets are regenerated on plant regeneration media and rooted afterwards. Transgenic plantlets are subjected to TaqMan analysis for the presence of the transgene before being transplanted to potting mixture and grown to maturity in greenhouse. Arabidopsis thaliana is transformed with HPPD or HST sequences by floral dip method as described by McElver and Singh (WO 2008/124495). Transgenic Arabidopsis plants are subjected to Tag Man analysis for analysis of the number of integration loci. Transformation of Oryza sativa (rice) are done by protoplast transformation as described by Peng et al. (U.S. Pat. No. 6,653,529)
(§2) Transgenic plants expressing heterologous HPPD or HST enzymes are tested for tolerance against coumarone-derivative herbicides in greenhouse experiments.
(§3) For post emergence treatment, the test plants are first grown to a height of 3 to 15 cm, depending on the plant habit, and only then treated with the herbicides. For this purpose, the test plants are either sown directly and grown in the same containers, or they are first grown separately and transplanted into the test containers a few days prior to treatment.
(§4) Depending on the species, the plants are kept at 10-25° C. or 20-35° C. The test period extends over 3 weeks. During this time, the plants are tended and their response to the individual treatments is evaluated. […] Tolerance to coumarone-derivative herbicides can also be assessed in Arabidopsis. In this case transgenic Arabidopsis thaliana plants are assayed for improved tolerance to coumarone-derivative herbicides in 48-well plates. Seeds are surface sterilized by stirring for 5 min in ethanol+water (70+30 by volume), rinsing one time with ethanol+water (70+30 by volume) and two times with a sterile, deionized water. […]

Test [3] has as its system transgenic corn plants, Arabidopsis I393L L385V, event SDM-71855. In words: Greenhouse testing of transgenic corn plants, Arabidopsis I393L L385V. Type of test: in vivo, Zea mays. Conditions: corn SDM-71855, 5 days after herbicide treatment, average of 8 T1.
Source text: as §1, §2, §3, §4

`CC1=NOC(c2c(Cl)ccc(C3=C(O)c4ncccc4C(C)(C)S3(=O)=O)c2Cl)C1` (centres unmarked) [Inhibitor 1, 7-[2,4-dichloro-3-(3-methyl-4,5-dihydroisoxazol-5-yl)phenyl]-5,5-dimethyl-6,6-dioxo-thiopyrano[4,3-b]pyridin-8-ol]: the “Normalized tolerance index TI” value in test [1] turned out to be 2.1.

Consider `CC1(C)c2cccnc2C(O)=C(c2ccc(Cl)nc2Cl)S1(=O)=O` [Inhibitor 2, 7-(2,6-dichloro-3-pyridyl)-5,5-dimethyl-6,6-dioxo-thiopyrano[4,3-b]pyridin-8-ol], for which, in test [1], the “Normalized tolerance index TI” value is on record as 1.1. For the same compound, the “Injury evaluation, scale of 1-100, bleaching phenotype” value in test [2] (2.5 g/ha) is 4; in test [2] (10 g/ha), 13; in test [2] (40 g/ha), 4; in test [3] (2.5 g/ha), 7; in test [3] (10 g/ha) it was 7; in test [3] (40 g/ha) it was 25.

As to `Cc1c(C(=O)c2cnn(C)c2O)ccc(S(C)(=O)=O)c1C1=NOCC1` [Topramezone, reference compound], the “Injury evaluation, scale of 1-100, bleaching phenotype” value in test [2] (6.25 g/ha) is recorded as 0; in test [2] (25 g/ha), 0; in test [2] (100 g/ha), 1; in test [3] (6.25 g/ha) it was 0; in test [3] (25 g/ha), 0; in test [3] (100 g/ha) it was 4.
